9 molecules from patent publication US12157730B2, “Heteroaryl derivative, method for producing same, and pharmaceutical composition comprising same as effective component” (VORONOI INC., priority 2019, dated 2024) can be followed below.

The target of this experiment is T1, Ba/F3 cell EGFR Exon20 ins NPH (Homo sapiens, UniProt P00533, INS773NPH).
T1 construct: expressed in transfected cells; host or cells: Ba/F3
The experiment can be described thus: Ba/F3 cell proliferation suppression, EGFR Exon20 ins NPH. Format: cell-based. Particulars: GI50 class; Ba/F3 cell line with NPH inserted at Exon20 of EGFR; 72 hours. In outline: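 Cells were seeded 24 h before dosing and then treated for 72 hours with compound at final concentrations of 0.3 nM to 50 um. Live cells were measured by CellTiter-Glo luminescence, and GI50 values were derived from growth ratio relative to control across three repeats.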
As for `C=CC(=O)Nc1cc(Nc2cc(N3OCC[C@@H]3c3cccc(Cl)c3)ncn2)c(OC)cc1N(C)CCN(C)C` [compound 359, N-(5-((6-((R)-3-(3-chlorophenyl)isoxazolidine-2-yl)pyrimidine-4-yl)amino)-2-((2-(dimethylamino)ethyl)(methyl)amino)-4-methoxyphenyl) acrylamide], the “Ba/F3 (NPH) Activity” value is listed as “A (GI50 < 50 nM)”.
In the case of `C=CC(=O)Nc1cc(Nc2cc(N3OCC[C@@H]3c3cccc(C(F)(F)F)c3)ncn2)c(OC)cc1N1CCC(N2CCOCC2)CC1` [compound 504, N-(4-methoxy-2-(4-morpholinopiperidine-1-yl)-5-((6-((R)-3-(3-(trifluoromethyl)phenyl)isoxazolidine-2-yl)pyrimidine-4-yl)amino)phenyl)acrylamide], the “Ba/F3 (NPH) Activity” value is listed as “A (GI50 < 50 nM)”.
Under `C=CC(=O)Nc1cc(Nc2cc(N3OCC[C@@H]3c3cccc(Cl)c3C)ncn2)c(OC)cc1N1CCC(N2C[C@@H]3C[C@H]2CO3)CC1` [compound 531, N-(2-(4-((1S,4S)-2-oxa-5-azabicyclo[2.2.1]heptane-5-yl)piperidine-1-yl)-5-((6-((R)-3-(3-chloro-2-methylphenyl)isoxazolidine-2-yl)pyrimidine-4-yl)amino)-4-methoxyphenyl) acrylamide] stands “A (GI50 < 50 nM)”; under `C=CC(=O)Nc1cc(Nc2cc(N3OCC[C@@H]3c3cc(F)cc(F)c3)ncn2)c(OC)cc1N1CCO[C@@H](C)C1` [compound 337, N-(5-((6-((R)-3-(3,5-difluorophenyl)isoxazolidine-2-yl)pyrimidine-4-yl)amino)-4-methoxy-2-((S)-2-methylmorpholino)phenyl)acrylamide], “B (50 nM ≤ GI50 < 500 nM)”.
Then `C=CC(=O)Nc1cc(Nc2cc(N3OCC[C@@H]3c3ccccc3)ncn2)c(OC)cc1N1CCC(N2CCN(CC3CC3)CC2)CC1` [Example 91, N-(2-(4-(4-(cyclopropylmethyl)piperazine-1-yl)piperidine-1-yl)-4-methoxy-5-((6-((R)-3-phenylisoxazolidine-2-yl)pyrimidine-4-yl)amino)phenyl)acrylamide], with “A (GI50 < 50 nM)”.
Under `C=CC(=O)Nc1cc(Nc2cc(N3OCC[C@@H]3c3cccc(OC)c3)ncn2)c(OC)cc1N1CC[C@@H](N2CCOCC2)C1` [compound 777, N-(4-methoxy-5-((6-((R)-3-(3-methoxyphenyl)isoxazolidine-2-yl)pyrimidine-4-yl)amino)-2-((R)-3-morpholinopyrolidine-1-yl)phenyl)acrylamide] stands “B (50 nM ≤ GI50 < 500 nM)”.
On to `C=CC(=O)Nc1cc(Nc2cc(N3OCC[C@]3(C)c3ccccc3)ncn2)c(OC)cc1N1CCC(N2C[C@H]3C[C@@H]2CO3)CC1` [Example 270, N-(2-(4-((1R,4R)-2-oxa-5-azabicyclo[2.2.1]heptane-5-yl)piperidine-1-yl)-4-methoxy-5-((6-((R)-3-methyl-3-phenylisoxazolidine-2-yl)pyrimidine-4-yl)amino)phenyl) acrylamide], for which the “Ba/F3 (NPH) Activity” value is on record as “B (50 nM ≤ GI50 < 500 nM)”.
Turning to `C=CC(=O)Nc1cc(Nc2cc(N3OCC[C@@H]3c3ccc(F)c(F)c3F)ncn2)c(OC)cc1N1CC[C@@H](N2CCOCC2)C1` [compound 623, N-(4-methoxy-2-((R)-3-morpholinopyrolidine-1-yl)-5-((6-((R)-3-(2,3,4-trifluorophenyl)isoxazolidine-2-yl)pyrimidine-4-yl)amino)phenyl)acrylamide], the “Ba/F3 (NPH) Activity” value is listed as “C (500 nM ≤ GI50 < 5000 nM)”.
Then `C=CC(=O)Nc1cc(Nc2cc(N3OCC[C@@H]3Cc3cccnc3)ncn2)c(OC)cc1N1CCC(N2CCN(C3CC3)[C@@H](C)C2)CC1` [compound 1057, N-(2-(4-((S)-4-cyclopropyl-3-methylpiperazine-1-yl)piperidine-1-yl)-4-methoxy-5-((6-((S)-3-(pyridine-3-ylmethyl)isoxazolidine-2-yl)pyrimidine-4-yl)amino)phenyl)acrylamide], with “B (50 nM ≤ GI50 < 500 nM)”.
